Source: article PMC5538713, “RORγt and RORα signature genes in human Th17 cells” (PLoS ONE, 2017)
Read-outs that look alike come from different tables or passages of the source.

Tests used:
Assay in all cases: Cerep selectivity panel
Type in all cases: binding
[1] = target: T1, A2A (h) (Homo sapiens, UniProt P29274); settings: for inhibition at 1 µM: read-out: % Inhibition at 1µM; for inhibition at 10 µM: read-out: % Inhibition at 10µM
T1 construct: purchased Cerep
Experimental: (§1) Supplementary file pone.0181868.s003.docx: S3 Table Selectivity profile of RORγt inverse agonists A, B, C and D. Compounds were evaluated at 1 μM and 10 μM in a panel of assays against 50 receptors, ion channels and transporters (Profile service by Cerep Inc.). (DOCX) Click here for additional data file.
(§2) S3 Table. RORɣt inverse agonists A, B, C and D were evaluated at 1 µM and 10 µM in a panel of assays against 50 receptors, ion channels and transporters (Profile service by Cerep Inc.).

[2] = target: T2, BK2 (h) (Homo sapiens, UniProt P30411); settings: for inhibition at 1 µM: read-out: % Inhibition at 1µM; for inhibition at 10 µM: read-out: % Inhibition at 10µM
T2 construct: purchased Cerep
T2 sequence (P30411 1-391): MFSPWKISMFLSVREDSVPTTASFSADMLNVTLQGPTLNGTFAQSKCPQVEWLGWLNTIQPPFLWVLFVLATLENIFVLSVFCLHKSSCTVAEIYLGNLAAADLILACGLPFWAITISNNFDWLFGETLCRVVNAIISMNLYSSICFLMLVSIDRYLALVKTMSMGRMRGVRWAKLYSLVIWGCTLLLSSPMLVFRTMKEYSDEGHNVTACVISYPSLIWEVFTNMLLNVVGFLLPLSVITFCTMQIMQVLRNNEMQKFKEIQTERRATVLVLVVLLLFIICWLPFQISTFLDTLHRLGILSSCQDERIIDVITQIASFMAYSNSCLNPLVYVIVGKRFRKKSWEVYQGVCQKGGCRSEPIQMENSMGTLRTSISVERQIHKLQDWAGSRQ
Experimental: as §1, §2

[3] = target: T3, NK2 (h) (Homo sapiens, UniProt P21452); settings: for inhibition at 1 µM: read-out: % Inhibition at 1µM; for inhibition at 10 µM: read-out: % Inhibition at 10µM
T3 construct: purchased Cerep
T3 sequence (P21452 1-398): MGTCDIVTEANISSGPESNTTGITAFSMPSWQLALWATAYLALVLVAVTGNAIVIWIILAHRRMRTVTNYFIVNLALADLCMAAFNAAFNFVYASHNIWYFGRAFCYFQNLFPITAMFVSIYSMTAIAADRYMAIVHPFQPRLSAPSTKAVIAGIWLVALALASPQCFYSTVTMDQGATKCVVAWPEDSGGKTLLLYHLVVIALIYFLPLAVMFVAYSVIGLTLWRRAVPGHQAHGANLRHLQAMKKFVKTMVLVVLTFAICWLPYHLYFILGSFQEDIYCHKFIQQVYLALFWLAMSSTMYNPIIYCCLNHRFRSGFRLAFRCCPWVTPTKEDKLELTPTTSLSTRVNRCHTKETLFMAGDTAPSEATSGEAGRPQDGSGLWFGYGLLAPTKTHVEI
Experimental: as §1, §2

[4] = target: T4, OP3 (h) (Homo sapiens, UniProt P35372); settings: for inhibition at 10 µM: read-out: % Inhibition at 10µM; for inhibition at 1 µM: read-out: % Inhibition at 1µM
T4 construct: purchased Cerep
T4 sequence (P35372 whole entry): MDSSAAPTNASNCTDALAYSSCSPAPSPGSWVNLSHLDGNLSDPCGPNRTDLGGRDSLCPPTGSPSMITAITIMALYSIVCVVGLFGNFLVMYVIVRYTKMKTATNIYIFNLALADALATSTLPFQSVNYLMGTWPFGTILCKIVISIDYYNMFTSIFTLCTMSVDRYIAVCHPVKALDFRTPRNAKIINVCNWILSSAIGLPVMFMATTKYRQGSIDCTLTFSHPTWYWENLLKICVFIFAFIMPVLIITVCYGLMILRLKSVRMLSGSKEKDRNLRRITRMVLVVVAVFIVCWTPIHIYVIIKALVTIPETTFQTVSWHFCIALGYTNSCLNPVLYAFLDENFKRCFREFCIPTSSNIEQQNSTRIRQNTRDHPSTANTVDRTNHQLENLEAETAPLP
Experimental: as §1, §2

[5] = target: T5, 5-HT6 (h) (Homo sapiens, UniProt P50406); settings: for inhibition at 10 µM: read-out: % Inhibition at 10µM
T5 construct: purchased Cerep
T5 sequence (P50406 whole entry): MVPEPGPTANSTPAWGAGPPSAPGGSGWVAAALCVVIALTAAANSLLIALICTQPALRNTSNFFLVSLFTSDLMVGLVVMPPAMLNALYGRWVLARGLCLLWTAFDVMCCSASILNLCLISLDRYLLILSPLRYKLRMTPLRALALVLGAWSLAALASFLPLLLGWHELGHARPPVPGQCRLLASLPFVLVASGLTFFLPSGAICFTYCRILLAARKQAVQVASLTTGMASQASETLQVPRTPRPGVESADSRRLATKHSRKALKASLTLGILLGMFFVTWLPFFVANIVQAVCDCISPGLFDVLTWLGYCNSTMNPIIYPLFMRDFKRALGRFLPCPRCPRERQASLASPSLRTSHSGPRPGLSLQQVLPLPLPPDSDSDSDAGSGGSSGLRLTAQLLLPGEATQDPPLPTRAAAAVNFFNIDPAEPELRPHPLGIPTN
Experimental: as §1, §2

[6] = target: T6, NK3 (h) (Homo sapiens, UniProt P29371); settings: for inhibition at 1 µM: read-out: % Inhibition at 1µM; for inhibition at 10 µM: read-out: % Inhibition at 10µM
T6 construct: purchased Cerep
T6 sequence (P29371 1-465): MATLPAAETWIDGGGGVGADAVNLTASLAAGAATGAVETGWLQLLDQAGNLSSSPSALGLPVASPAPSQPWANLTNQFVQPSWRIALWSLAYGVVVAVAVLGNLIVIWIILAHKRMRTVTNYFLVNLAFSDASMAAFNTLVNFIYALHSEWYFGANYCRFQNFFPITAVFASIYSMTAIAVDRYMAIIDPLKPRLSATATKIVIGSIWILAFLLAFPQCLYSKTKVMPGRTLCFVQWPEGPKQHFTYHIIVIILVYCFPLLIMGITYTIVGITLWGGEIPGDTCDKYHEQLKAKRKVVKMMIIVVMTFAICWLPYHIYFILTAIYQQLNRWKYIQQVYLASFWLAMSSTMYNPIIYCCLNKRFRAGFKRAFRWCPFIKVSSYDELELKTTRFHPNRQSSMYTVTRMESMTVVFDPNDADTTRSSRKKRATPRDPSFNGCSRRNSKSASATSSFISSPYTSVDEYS
Experimental: as §1, §2

[7] = target: T7, 5HT2A (h) (Homo sapiens, UniProt P28223); settings: read-out: % Inhibition at 10µM
T7 construct: purchased Cerep
T7 sequence (P28223 whole entry): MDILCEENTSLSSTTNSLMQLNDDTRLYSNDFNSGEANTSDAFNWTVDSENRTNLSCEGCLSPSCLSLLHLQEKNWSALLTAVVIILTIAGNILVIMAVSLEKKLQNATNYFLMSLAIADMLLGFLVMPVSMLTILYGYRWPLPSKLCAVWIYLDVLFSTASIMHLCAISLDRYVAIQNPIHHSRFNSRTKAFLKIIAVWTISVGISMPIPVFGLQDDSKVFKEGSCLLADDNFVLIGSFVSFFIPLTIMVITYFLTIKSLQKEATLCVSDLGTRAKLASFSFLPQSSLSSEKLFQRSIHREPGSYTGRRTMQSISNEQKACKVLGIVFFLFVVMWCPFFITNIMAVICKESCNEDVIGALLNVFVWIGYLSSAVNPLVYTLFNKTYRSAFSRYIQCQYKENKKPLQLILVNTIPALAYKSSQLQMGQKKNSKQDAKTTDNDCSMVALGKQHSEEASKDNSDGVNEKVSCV
Experimental: as §1, §2

[8] = target: T8, ORL1 (h) (Homo sapiens, UniProt P41146); settings: for inhibition at 1 µM: read-out: % Inhibition at 1µM; for inhibition at 10 µM: read-out: % Inhibition at 10µM
T8 construct: purchased Cerep
T8 sequence (P41146 whole entry): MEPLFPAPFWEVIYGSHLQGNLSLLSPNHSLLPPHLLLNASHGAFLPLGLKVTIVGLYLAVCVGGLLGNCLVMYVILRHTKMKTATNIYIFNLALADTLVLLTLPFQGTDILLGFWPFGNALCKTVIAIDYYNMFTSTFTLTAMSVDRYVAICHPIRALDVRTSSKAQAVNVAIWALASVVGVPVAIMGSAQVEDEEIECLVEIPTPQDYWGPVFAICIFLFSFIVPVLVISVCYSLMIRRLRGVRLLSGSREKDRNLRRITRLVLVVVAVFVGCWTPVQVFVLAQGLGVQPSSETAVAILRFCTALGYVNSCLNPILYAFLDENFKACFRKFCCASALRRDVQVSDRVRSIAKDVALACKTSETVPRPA
Experimental: as §1, §2

[9] = target: T9, D1 (h) (Homo sapiens, UniProt P21728); settings: for inhibition at 1 µM: read-out: % Inhibition at 1µM; for inhibition at 10 µM: read-out: % Inhibition at 10µM
T9 construct: purchased Cerep
T9 sequence (P21728 whole entry): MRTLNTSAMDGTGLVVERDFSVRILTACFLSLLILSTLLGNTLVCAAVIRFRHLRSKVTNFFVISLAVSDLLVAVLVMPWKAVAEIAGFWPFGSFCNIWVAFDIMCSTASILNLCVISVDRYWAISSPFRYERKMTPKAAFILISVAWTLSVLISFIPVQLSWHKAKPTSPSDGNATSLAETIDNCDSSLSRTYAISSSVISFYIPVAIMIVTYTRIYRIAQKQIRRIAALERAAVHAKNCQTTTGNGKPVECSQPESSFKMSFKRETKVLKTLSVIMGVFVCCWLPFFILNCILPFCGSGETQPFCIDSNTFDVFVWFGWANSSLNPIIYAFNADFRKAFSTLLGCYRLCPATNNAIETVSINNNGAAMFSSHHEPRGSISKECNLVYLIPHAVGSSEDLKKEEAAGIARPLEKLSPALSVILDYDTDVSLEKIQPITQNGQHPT
Experimental: as §1, §2

[10] = target: T10, A3 (h) (Homo sapiens, UniProt P0DMS8); settings: for inhibition at 1 µM: read-out: % Inhibition at 1µM; for inhibition at 10 µM: read-out: % Inhibition at 10µM
T10 construct: purchased Cerep
T10 sequence (P0DMS8 1-318): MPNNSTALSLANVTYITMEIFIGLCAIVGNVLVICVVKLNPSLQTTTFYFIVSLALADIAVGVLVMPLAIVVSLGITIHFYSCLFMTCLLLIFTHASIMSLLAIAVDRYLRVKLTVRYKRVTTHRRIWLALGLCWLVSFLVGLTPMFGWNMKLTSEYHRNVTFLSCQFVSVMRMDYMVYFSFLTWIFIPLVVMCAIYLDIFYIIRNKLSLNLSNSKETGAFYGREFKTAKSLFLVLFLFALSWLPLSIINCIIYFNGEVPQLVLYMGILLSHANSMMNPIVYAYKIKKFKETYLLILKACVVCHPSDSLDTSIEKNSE
Experimental: as §1, §2

[11] = target: T11, Ab1 (h) (Homo sapiens, UniProt P08588); settings: for inhibition at 1 µM: read-out: % Inhibition at 1µM; for inhibition at 10 µM: read-out: % Inhibition at 10µM
T11 construct: purchased Cerep
T11 sequence (P08588 whole entry): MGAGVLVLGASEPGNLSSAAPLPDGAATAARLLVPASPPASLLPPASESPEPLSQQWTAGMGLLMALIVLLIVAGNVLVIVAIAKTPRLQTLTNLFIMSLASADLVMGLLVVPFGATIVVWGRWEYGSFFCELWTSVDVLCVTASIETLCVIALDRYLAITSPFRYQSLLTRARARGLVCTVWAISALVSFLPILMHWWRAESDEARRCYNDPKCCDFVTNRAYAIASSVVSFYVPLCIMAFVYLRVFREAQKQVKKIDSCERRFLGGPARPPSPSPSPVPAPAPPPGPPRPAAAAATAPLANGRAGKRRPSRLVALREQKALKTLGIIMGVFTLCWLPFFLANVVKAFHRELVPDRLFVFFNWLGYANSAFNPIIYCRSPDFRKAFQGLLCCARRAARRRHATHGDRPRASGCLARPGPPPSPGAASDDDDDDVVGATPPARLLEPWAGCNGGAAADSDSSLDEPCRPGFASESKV
Experimental: as §1, §2

[12] = target: T12, H1 (h) (Homo sapiens, UniProt P35367); settings: for inhibition at 10 µM: read-out: % Inhibition at 10µM
T12 construct: purchased Cerep
T12 sequence (P35367 whole entry): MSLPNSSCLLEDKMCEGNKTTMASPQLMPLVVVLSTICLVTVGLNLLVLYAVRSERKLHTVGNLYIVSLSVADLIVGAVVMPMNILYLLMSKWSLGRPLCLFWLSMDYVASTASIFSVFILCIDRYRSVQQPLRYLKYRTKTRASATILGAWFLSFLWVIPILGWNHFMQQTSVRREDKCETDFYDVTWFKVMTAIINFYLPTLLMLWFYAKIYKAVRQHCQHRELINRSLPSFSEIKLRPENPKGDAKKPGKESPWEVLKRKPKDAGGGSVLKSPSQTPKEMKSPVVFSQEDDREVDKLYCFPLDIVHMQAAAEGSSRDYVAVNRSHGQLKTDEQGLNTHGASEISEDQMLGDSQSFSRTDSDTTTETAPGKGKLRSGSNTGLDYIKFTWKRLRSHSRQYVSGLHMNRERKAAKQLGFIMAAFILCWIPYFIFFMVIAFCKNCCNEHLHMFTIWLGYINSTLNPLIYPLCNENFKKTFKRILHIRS
Experimental: as §1, §2

[13] = target: T13, ɣ2 (h) (Homo sapiens, UniProt P49146)
T13 construct: purchased Cerep
T13 sequence (P49146 1-381): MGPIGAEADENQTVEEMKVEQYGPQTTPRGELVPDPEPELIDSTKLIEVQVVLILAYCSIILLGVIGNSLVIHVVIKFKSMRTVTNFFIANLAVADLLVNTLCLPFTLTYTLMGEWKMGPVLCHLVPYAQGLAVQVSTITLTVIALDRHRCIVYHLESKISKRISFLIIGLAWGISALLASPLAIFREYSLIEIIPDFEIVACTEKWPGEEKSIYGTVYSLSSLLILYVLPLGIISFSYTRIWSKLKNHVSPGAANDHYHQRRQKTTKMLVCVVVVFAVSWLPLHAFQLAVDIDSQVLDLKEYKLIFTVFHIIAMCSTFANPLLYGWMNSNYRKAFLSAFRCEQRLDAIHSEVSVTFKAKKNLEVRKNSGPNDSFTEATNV
Experimental: as §1, §2

T1 sequence (P29274 whole entry): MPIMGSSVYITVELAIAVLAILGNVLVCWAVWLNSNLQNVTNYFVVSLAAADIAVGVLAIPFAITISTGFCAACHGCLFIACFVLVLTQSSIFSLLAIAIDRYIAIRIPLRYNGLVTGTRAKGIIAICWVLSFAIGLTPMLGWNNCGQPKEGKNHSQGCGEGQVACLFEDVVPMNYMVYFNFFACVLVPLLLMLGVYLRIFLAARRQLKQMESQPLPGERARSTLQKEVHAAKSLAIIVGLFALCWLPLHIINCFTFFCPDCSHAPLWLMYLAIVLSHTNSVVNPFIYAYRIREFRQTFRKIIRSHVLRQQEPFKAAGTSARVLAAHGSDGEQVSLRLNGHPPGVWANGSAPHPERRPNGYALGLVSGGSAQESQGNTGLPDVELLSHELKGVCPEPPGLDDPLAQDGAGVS

Compound | inhibition at 10 µM [13] [%] | inhibition at 10 µM [2] [%] | inhibition at 1 µM [3] [%] | inhibition at 10 µM [3] [%] | inhibition at 1 µM [4] [%] | inhibition at 10 µM [4] [%] | inhibition at 1 µM [6] [%] | inhibition at 10 µM [6] [%] | inhibition at 10 µM [7] [%] | inhibition at 1 µM [8] [%] | inhibition at 10 µM [9] [%] | inhibition at 1 µM [10] [%] | inhibition at 10 µM [10] [%] | inhibition at 1 µM [11] [%] | inhibition at 10 µM [11] [%] | inhibition at 10 µM [12] [%] | inhibition at 1 µM [1] [%] | inhibition at 10 µM [1] [%] | inhibition at 10 µM [5] [%] | other results
COc1nc2ccc([C@@](O)(c3ccc(C)nc3C)c3cnnn3C)cc2c(Cl)c1Cc1ccc(C(F)(F)F)cc1 [compound A] | – | – | – | – | – | – | – | – | – | – | – | – | – | – | – | – | – | – | – | inhibition at 1 µM ([1]; A2A (h), 1 µM): 20%; inhibition at 10 µM ([1]; A2A (h), 10 µM): 5%; inhibition at 1 µM ([2]; BK2 (h), 1 µM): 6%; inhibition at 1 µM ([3]; NK2 (h), 1 µM): 7%; inhibition at 10 µM ([3]; NK2 (h), 10 µM): 41%; inhibition at 10 µM ([4]; OP3 (h), 10 µM): 17%; inhibition at 10 µM ([5]; 5-HT6 (h), 10 µM): 10%; inhibition at 1 µM ([6]; NK3 (h), 1 µM): 9%; inhibition at 10 µM ([6]; NK3 (h), 10 µM): 57%; inhibition at 10 µM ([7]; 5HT2A (h), 10 µM): 27%; inhibition at 1 µM ([8]; ORL1 (h), 1 µM): 1%; inhibition at 10 µM ([8]; ORL1 (h), 10 µM): 10%; inhibition at 1 µM ([9]; D1 (h), 1 µM): 16%; inhibition at 10 µM ([9]; D1 (h), 10 µM): 48%; inhibition at 1 µM ([10]; A3 (h), 1 µM): 49%; inhibition at 10 µM ([10]; A3 (h), 10 µM): 92%; inhibition at 1 µM ([11]; Ab1 (h), 1 µM): 0%; inhibition at 10 µM ([11]; Ab1 (h), 10 µM): 10%; inhibition at 10 µM ([12]; H1 (h), 10 µM): 8%
COc1nc2ccc([C@](O)(c3ccc(Cl)cc3)c3cncn3C)cc2c(Cl)c1Cc1ccc(-n2cccn2)cc1 [B] | 10 | 6 | 9 | 30 | 3 | 3 | 1 | 10 | 12 | 6 | 29 | 9 | 20 | 0 | 2 | 2 | – | – | – | inhibition at 1 µM [2]: 9%; inhibition at 10 µM [8]: 4%; inhibition at 1 µM [9]: 10%
COc1nc2ccc([C@@](O)(c3ccccc3)C3CCN(C(C)=O)CC3)cc2c(Cl)c1Cc1ccc(-n2cccn2)cc1 [C] | 5 | – | – | 19 | 2 | 15 | 21 | 31 | – | – | 11 | 16 | 41 | – | – | – | 18 | 21 | 22 | inhibition at 1 µM ([5]; read-out: % Inhibition at 1µM): 20%; inhibition at 1 µM ([12]; read-out: % Inhibition at 1µM): 10%
CN(C)c1nc2ccc(C(O)(c3ccncc3)c3cncn3C)cc2c(Cl)c1-c1ccccc1 (stereo not shown) [compound D] | 15 | 10 | 9 | 98 | 3 | 30 | – | 45 | 22 | 5 | 40 | – | 67 | 3 | 2 | 27 | 2 | 43 | 18 | inhibition at 1 µM ([13]; 1 µM): 10%
